What was measured:
human URAT1 = molecular target: T1, human URAT1 (Homo sapiens, UniProt Q96S37); details: for Fold more potent than parent lesinurad (URAT1 inhibition): ratio of IC50 vs lesinurad, in vitro URAT1 inhibitory assay
T1 sequence (Q96S37 1-553): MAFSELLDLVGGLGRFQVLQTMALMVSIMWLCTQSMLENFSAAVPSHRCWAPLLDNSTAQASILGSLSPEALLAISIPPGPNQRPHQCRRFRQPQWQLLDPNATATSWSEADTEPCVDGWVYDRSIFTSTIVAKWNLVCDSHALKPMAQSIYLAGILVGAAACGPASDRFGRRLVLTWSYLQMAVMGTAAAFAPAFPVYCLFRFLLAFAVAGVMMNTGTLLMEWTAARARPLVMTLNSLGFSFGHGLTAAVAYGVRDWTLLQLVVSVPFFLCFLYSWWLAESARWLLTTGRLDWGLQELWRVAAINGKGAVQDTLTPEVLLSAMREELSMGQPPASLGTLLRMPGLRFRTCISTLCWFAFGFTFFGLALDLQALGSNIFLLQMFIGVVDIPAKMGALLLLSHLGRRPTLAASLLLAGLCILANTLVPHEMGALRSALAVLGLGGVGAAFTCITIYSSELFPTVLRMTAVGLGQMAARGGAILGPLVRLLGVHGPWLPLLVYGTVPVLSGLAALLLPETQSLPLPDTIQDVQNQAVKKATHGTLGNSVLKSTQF
Method: After 48 h, when the HEK293-URAT1 cells were grown to confluence, the cells were treated by 0.25% trypsin for 1–2 min. Thereafter, the digested cells were diluted to a density of 1.5 × 10^5/mL and inoculated into the 24-well cell culture plates for about 48 h. The HEK293-URAT1 cells were pre-incubated for 10 min in HBSS (Cl^− free) and then incubated in the uptake solution (PBS) containing 5 μM [8-^14C]uric acid (2 μCi/mL) with or without the tested compounds (at a series of concentrations). […] After that, 500 μL of cell lysis was transferred to scintillation vials and solubilized with scintillation solution. The radioactivity in the cells was measured by a liquid scintillation counter (PerkinElmer, Waltham, MA, USA).

| SMILES | IC50 (human URAT1) [µM] | melting point | Fold more potent than parent lesinurad (URAT1 inhibition) (human URAT1) |
| --- | --- | --- | --- |
| O=C([O-])CCCCc1nnc(Br)n1Cc1ccc(Br)c2ccccc12.[Na+] [Compound 1r, Sodium 5-(5-bromo-4-((4-bromonaphth-1-yl)methyl)-4H-1,2,4-triazol-3-yl)pentanoate] | 1.24 ± 0.17 | 146 to 149 °C |  |
| O=C([O-])CCc1nnc(Br)n1-c1ccc(C2CC2)c2ccccc12.[Na+] [Compound 1c, Sodium 3-(5-bromo-4-(4-cyclopropylnaphth-1-yl)-4H-1,2,4-triazol-3-yl)propionate] | 2.4 ± 0.15 |  | three |
| O=C([O-])CCc1nnc(Br)n1-c1ccc(Br)c2ccccc12.[Na+] [Compound 1n, Sodium 3-(5-bromo-4-(4-bromonaphth-1-yl)-4H-1,2,4-triazol-3-yl)propionate] | 0.85 ± 0.12 | 204 °C (dec.) |  |
| O=C([O-])CCc1nnc(Br)n1-c1cccc2ccccc12.[Na+] [Compound 1g, Sodium 3-(5-bromo-4-(naphth-1-yl)-4H-1,2,4-triazol-3-yl)propionate] | 10.5 ± 1.4 | 182 to 184 °C |  |
| O=C([O-])CCc1nncn1-c1ccc(C2CC2)c2ccccc12.[Na+] [Compound 1a, Sodium 3-(4-(4-cyclopropylnaphth-1-yl)-4H-1,2,4-triazol-3-yl)propionate] | > 100 | 140 °C (dec.) |  |
| O=C([O-])CCc1nnc(Cl)n1-c1ccc(C2CC2)c2ccccc12.[Na+] [Compound 1b, Sodium 3-(5-chloro-4-(4-cyclopropylnaphth-1-yl)-4H-1,2,4-triazol-3-yl)propionate] | 6.3 ± 0.74 | 135 °C (dec.) |  |
| COc1ccc(-n2c(Br)nnc2CCC(=O)[O-])c2ccccc12.[Na+] [Compound 1l, Sodium 3-(5-bromo-4-(4-methoxynaphth-1-yl)-4H-1,2,4-triazol-3-yl)propionate] | 36.6 ± 5.3 | 211 °C (dec.) |  |
| O=C([O-])CCCc1nnc(Br)n1Cc1ccc(Br)c2ccccc12.[Na+] [Compound 1q, Sodium 4-(5-bromo-4-((4-bromonaphth-1-yl)methyl)-4H-1,2,4-triazol-3-yl)butanoate] | 0.23 ± 0.05 |  | 31 fold |
| O=C(O)CCc1nnc(Br)n1Cc1ccc(Br)c2ccccc12 [Compound 1o, Sodium 3-(5-bromo-4-((4-bromonaphth-1-yl)methyl)-4H-1,2,4-triazol-3-yl)propionate] | 0.61 ± 0.07 |  |  |
| O=C([O-])CCc1nnc(Br)n1CCc1ccc(Br)c2ccccc12.[Na+] [Compound 1p, Sodium 3-(5-bromo-4-(2-(4-bromonaphth-1-yl)ethyl)-4H-1,2,4-triazol-3-yl)propionate] | 34.7 ± 4.9 | 167 °C (dec.) |  |
| COc1nnc(CCC(=O)[O-])n1-c1ccc(C2CC2)c2ccccc12.[Na+] [Compound 1e, Sodium 3-(4-(4-cyclopropylnaphth-1-yl)-5-methoxy-4H-1,2,4-triazol-3-yl)propionate] | > 100 | 133 °C (dec.) |  |
| O=C([O-])CCc1nnc(I)n1-c1ccc(C2CC2)c2ccccc12.[Na+] [Compound 1d, Sodium 3-(4-(4-cyclopropylnaphth-1-yl)-5-iodo-4H-1,2,4-triazol-3-yl)propionate] | 8.8 ± 1 | 158 °C (dec.) |  |
| CCOc1nnc(CCC(=O)[O-])n1-c1ccc(C2CC2)c2ccccc12.[Na+] [Compound 1f, Sodium 3-(4-(4-cyclopropylnaphth-1-yl)-5-ethoxy-4H-1,2,4-triazol-3-yl)propionate] | 9.1 ± 1.2 | 101.5 °C (dec.) |  |
| CCc1ccc(-n2c(Br)nnc2CCC(=O)[O-])c2ccccc12.[Na+] [Compound 1i, Sodium 3-(5-bromo-4-(4-ethylnaphth-1-yl)-4H-1,2,4-triazol-3-yl)propionate] | 8.4 ± 0.98 | 198 °C (dec.) |  |
| CCOc1ccc(-n2c(Br)nnc2CCC(=O)[O-])c2ccccc12.[Na+] [Compound 1m, Sodium 3-(5-bromo-4-(4-ethoxynaphth-1-yl)-4H-1,2,4-triazol-3-yl)propionate] | 11.2 ± 1.3 | 194 °C (dec.) |  |
| CC(C)c1ccc(-n2c(Br)nnc2CCC(=O)[O-])c2ccccc12.[Na+] [Compound 1k, Sodium 3-(5-bromo-4-(4-isopropylnaphth-1-yl)-4H-1,2,4-triazol-3-yl)propionate] | 1.1 ± 0.21 | 194 °C (dec.) |  |
| Cc1ccc(-n2c(Br)nnc2CCC(=O)[O-])c2ccccc12.[Na+] [Compound 1h, Sodium 3-(5-bromo-4-(4-methylnaphth-1-yl)-4H-1,2,4-triazol-3-yl)propionate] | 12.6 ± 1.6 | 155 °C (dec.) |  |
| CCCc1ccc(-n2c(Br)nnc2CCC(=O)[O-])c2ccccc12.[Na+] [Compound 1j, Sodium 3-(5-bromo-4-(4-n-propylnaphth-1-yl)-4H-1,2,4-triazol-3-yl)propionate] | 8.3 ± 1.1 | 183 °C (dec.) |  |

Source: article PMC6274368 (Molecules, 2016)
